From US9650361B2, “N-(pyridin-2-yl)pyrimidin-4-amine derivatives containing a sulfoximine group” (BAYER PHARAM AKTIENGESELLSCHAFT, priority 2012, dated 2017)

Key:
[1] = molecular target: T1, human carbonic anhydrase-2 (Homo sapiens, UniProt P00918); assay: Carbonic anhydrase assay, carbonic anhydrase-2 (Method 6); format: biochemical; conditions: read-out: Inhibition of Carbonic anhydrase-2 IC50
T1 construct: purchased Sigma C6165
Experimental: (§1) 6. Carbonic Anhydrase Assay
(§2) The principle of the assay is based on the hydrolysis of 4-nitrophenyl acetate by carbonic anhydrases (Pocker & Stone, Biochemistry, 1967, 6, 668), with subsequent photometric determination of the dye product 4-nitrophenolate at 400 nm by means of a 96-channel spectral photometer.
(§3) 2 μL of the test compounds, dissolved in DMSO (100-fold final concentration), in a concentration range of 0.03-10 μmol/L (final), was pipetted as quadruplicates into the wells of a 96-hole microtiter plate. Wells that contained the solvent without test compounds were used as reference values (1. Wells without carbonic anhydrase for correction of the non-enzymatic hydrolysis of the substrate, and 2. Wells with carbonic anhydrase for determining the activity of the non-inhibited enzyme).
(§4) 188 μL of assay buffer (10 mmol/L of Tris/HCl, pH 7.4, 80 mmol/L of NaCl), with or without 3 units/well of carbonic anhydrase-1 [=human carbonic anhydrase-1 (Sigma, #C4396)] in order to determine carbonic anhydrase-1 inhibition or 3 units/well of carbonic anhydrase-2 [=human carbonic anhydrase-2 (Sigma, #C6165)] for measuring carbonic anhydrase-2 inhibition, was pipetted into the wells of the microtiter plate.

[2] = molecular target: T2, human carbonic anhydrase-1 (Homo sapiens, UniProt P00915); assay: Carbonic anhydrase assay, carbonic anhydrase-1 (Method 6); format: biochemical; conditions: read-out: Inhibition of Carbonic anhydrase-1 IC50
T2 construct: purchased Sigma C4396
Experimental: as §1, §2, §3, §4

T2 sequence (P00915 whole entry): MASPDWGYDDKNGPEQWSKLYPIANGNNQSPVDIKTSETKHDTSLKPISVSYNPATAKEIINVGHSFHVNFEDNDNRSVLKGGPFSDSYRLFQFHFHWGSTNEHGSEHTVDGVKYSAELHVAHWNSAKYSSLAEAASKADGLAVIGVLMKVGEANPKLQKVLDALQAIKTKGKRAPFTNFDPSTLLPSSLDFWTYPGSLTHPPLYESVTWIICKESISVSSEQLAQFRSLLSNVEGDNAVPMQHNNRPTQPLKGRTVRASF

- IC50 [1]: > 10 µM
- IC50 [2]: > 10 µM
Compound: COc1cc(F)ccc1-c1cc(Nc2cc(CS(C)(=N)=O)ccn2)ncn1 (racemic) [Example 1, (rac)-6-(4-Fluoro-2-methoxyphenyl)-N-{4-[(S-methylsulfonimidoyl)methyl]pyridin-2-yl}pyrimidin-4-amine]
